# Data from patent US5242945A, “Tetronic and thiotetronic acid derivatives as phospholipase A2 inhibitors” (American Home Products Corporation, priority 1991, dated 1993).
# Read-outs that look alike come from different tables or passages of the source.
# Key:
# cyclooxygenase (PGE2) = assay: resident murine peritoneal macrophage assay, PGE2; assay type: cell-based, mouse (Swiss Webster); conditions: Mus musculus, Peritoneal macrophage; for IC50: read-out: PGE2 zymosan IC50
# Experimental: The ability of the compounds of the invention to act as inhibitors of the enzymes 5-lipoxygenase and cyclooxygenase is measured in the resident murine peritoneal macrophage assay.
# Resident peritoneal macrophages are collected from female Swiss Webster mice (49 days old, 20-25 gms, Buckshire) by lavaging with 7-8 ml Hanks Balanced Salt Solution (HBSS) without Ca^++ and Mg^++ (GIBCO). The lavage fluid from several mice is pooled and centrifuged at 4° C. for 10 minutes at 400 xg. The cell pellet is resuspended in Medium 199 (GIBCO) with HEPES buffer containing 100 μg/ml gentamicin. Two ml of the cell suspension (4×10^6 cells) are then plated on 35 mm culture dishes (Nunc).
# A macrophage monolayer is established after a 1-1.5 hour incubation of the cells at 37° C. in an atmosphere of […] and 5% CO2. The monolayers are washed 2× with 2 ml HBDSS, containing Ca^++ and Mg^++ after which 2 ml Medium 199 supplemented with 10% freshly thawed heat-inactivated fetal bovine serum and 100 μg/ml gentamicin is added for an overnight incubation.
# Residual serum and cellular debris are removed from the monolayers by washing 3× with 2 ml HBSS containing Ca^++ and Mg^++. Macrophages are preincubated for 5 minutes with 1 ml serum-free M199 containing 10 μl dimethyl sulfoxide (DMSO) vehicle or test compound prior to cell activation with zymosan ([…]) or arachidonic acid (AA) (2 μM). After 2 hours, the supernatants are removed and either assayed for LTC4 and PGE2 by radioimmunoassay (RIA) directly or stored at -20° C. In all cases, results are expressed as ng metabolite/4×10^6 cells.
# Raw data (dpm) may be stored directly onto an "Autostart" tape using the HP85 in room C-096. The raw data are converted to ng metabolite/4-10^6cells using the standard curve by a "RIANAL" program (HP85) or a "NONLIN" program (HP9816). Results are then expressed as percent inhibition of zymosan induced, leukotriene or prostaglandin synthesis (control) using the equation: [formula]
# [1] = system: platelet-activating factor (PAF) biosynthesis in human polymorphonuclear neutrophils (PMN); assay: platelet-activating factor biosynthesis in human polymorphonuclear neutrophils (in vitro phospholipase A2 assay); assay type: cell-based; conditions: Polymorphonuclear neutrophil, human PMN
# Experimental: The compounds of the invention are tested in an in vitro phospholipase A2 assay to determine the ability of the compounds to inhibit the biosynthesis of platelet-activating factor and LTB4 in purified human neutrophils.
# A leukocyte enriched blood sample obtained from a healthy donor is procured by leukophoresis using a Haemonetics model 30+ blood processor (Biological Specialties, Inc., Lansdale, Penn.). The top "platelet-rich" layer is removed after a low speed spin (35 xg, 15 min, 25° C.) of the sample. The remaining cell suspension is centrifuged (400 xg, 10 min, 25° C.) to sediment the remaining cells. The supernatant is discarded and the cell pellet resuspended in 120 ml HBSS (without Ca^++ /Mg^++). The cell suspension is subjected to ficoll-hypaque sedimentation (Histopaque 1077, 400 xg, 30 min, 25° C.). Contaminating erythrocytes are lysed by hypotonic shock (1 min). The cells are then washed once with 40 ml of HBSS and resuspended with HBSS (without Ca^++ /Mg^++) to a concentration of 2.5×10^7 cells/ml for further use. Greater than 95% purity is obtained, as assessed by microscopic examination.
# One ml of human PMN (2.5×10^7 cells/ml) is incubated with vehicle or drugs (10 μl) for 10 minutes at 30° C. After preincubation, an equal volume of HBSS (1 ml) containing 2.4 mM CaCl2, 6 μM calcium ionophore A23187 and 50 μCi [^3 H]-acetate is then incubated at 30° C. for 15 minutes. An aliquot (100 μl) of the reaction mixture is taken out and mixed with 900 μl of 15% ethanol. LTB4 is extracted by using solid phase extraction on reverse phase C18 columns to remove excess [^3 H]-acetate and PAD. The C18 column is prewashed once with 2 ml of ethanol and water. The sample aliquot is acidified with 0.1N HCl to pH 3 before applying to the column. The column is then washed with 2 ml of water followed by 2 ml of 15% ethanol and 2 ml of petroleum ether to remove excess labeled acetate. The sample is eluted with 2 ml of ethyl acetate. The collected samples are dried with nitrogen and resuspended in 0.5 ml RIA buffer. The quantity of LTB4 in the sample is obtained from RIA determination. For PAF determination, the reaction is terminated by addition of 5 ml chloroform:methanol:acetic acid (2:1:0.04, v/v/v). [^3 H]-PAF is obtained by Bligh and Dyer extraction. The chloroform phase is removed and dried under nitrogen. The residue is redissolved in 75 μl of chloroform:methanol (80:20, v/v). [^3 H]-PAF is resolved from other phospholipids by TLC on RPC18 plates with a solvent system of chloroform:methanol:water (2:3:1, v/v/v) and is quantitated using a Berthold automated TLC linear analyzer.
# Data presented are the mean +/- s.d. of the values relative to control A23187 stimulated cells for each experiment assayed in triplicate. Percent inhibition when used is calculated as:
# % Inhibition=100-[(x.div.Control)×100].
# Dose response analysis is performed by non-linear regression analysis for curve fitting and IC50 determination.
# TPA-induced ear edema = assay: 12-o-tetradecanoylphorbol acetate (TPA)-induced murine ear edema assay; assay type: in vivo, mouse (Swiss Webster); conditions: TPA; for ED50: Mus musculus, sc, 4 h, read-out: Subcutaneous ED50; for Subcutaneous % Inhibition at 50 m/kg / ED50: subcutaneous
# Experimental: The ability of the compounds of the invention to inhibit inflammatory responses is examined in the in vivo arachidonic acid (AA)/12-o-tetradecanoylphorbol acetate (TPA)-induced murine ear edema assay.
# Swiss Webster female mice (Buckshire), approximately 8 weeks old are placed into plastic boxes in groups of six. Eight groups of mice receive AA topically on the right ear, and another 8 groups receive TPA topically on the right ear. AA and TPA are dissolved in acetone at concentrations of 100 mg/ml and 100 μg/ml respectively. The phlogistics are applied to the right ear by the means of an automatic pipet. Volumes of 10 μl are applied to the inner and outer surfaces of the ear. Each mouse receives either 2 mg/ear AA or 2 μg/ear TPA. The left ear (control) receives acetone delivered in the same manner. Topical and subcutaneous dosing regimens are as follows 1) drugs are given 30 minutes prior to AA treatment and 2) drugs are given 30 minutes after treatment with TPA.
# Measurements are taken with Oditest calipers, 0-10 mm with 0.01 graduations. The right and left ears are measured after 1 hr AA-induced inflammation and 4 hours after TPA-induced inflammation.
# The difference between right and left ear thickness is calculated and the significance is determined by a one way analysis of variance with Dunnett's comparisons to control (P=0.05). Drug effects are expressed as a percent change from control values: [formula]
# [2] = arachidonic acid stimulation, read-out: PGE2 AA % Inhibition
Compound,IC50 (cyclooxygenase (PGE2); zymosan stimulation),inhibition at 10 µM [1],inhibition at 25 µM [1],inhibition at 50 µM [1],Subcutaneous % Inhibition at 50 m/kg (TPA-induced ear edema; on line of vehicle acetone),Topical % Inhibition at 200 μg (TPA-induced ear edema; vehicle acetone),inhibition at 0.3 µM (cyclooxygenase (PGE2); [2]),Subcutaneous % Inhibition at 50 m/kg (TPA-induced ear edema; on line of vehicle EPW),Topical % Inhibition at 200 μg (TPA-induced ear edema; vehicle EPW),"inhibition at 5 µM (cyclooxygenase (PGE2); arachidonic acid stimulation, 5 μM, read-out: PGE2 AA % Inhibition)",ED50 (TPA-induced ear edema),"inhibition at 1 µM (cyclooxygenase (PGE2); arachidonic acid stimulation, 1.0 μM, read-out: PGE2 AA % Inhibition)",Topical % Inhibition at 200 μg (TPA-induced ear edema; vehicle not given),inhibition at 0.5 µM (cyclooxygenase (PGE2); [2]),inhibition at 0.1 µM (cyclooxygenase (PGE2); zymosan stimulation),"inhibition at 0.03 µM (cyclooxygenase (PGE2); zymosan stimulation, 0.03 μM)",Subcutaneous % Inhibition at 50 m/kg (TPA-induced ear edema; no vehicle on line),"inhibition at 0.5 µM (cyclooxygenase (PGE2); zymosan stimulation, read-out: PGE2 zymosan % Inhibition)"
"CCCCCCCCCC(=O)C1=C(O)COC1=O [Example 1, 4-Hydroxy-3-(1-oxodecyl)-2(5H)-furanone]",3000 nM,13%,32%,68%,23%,31%,–,–,–,–,–,–,–,–,–,–,–,–
"CCCCCCCC/C=C\CCCCCCCC(=O)C1=C(O)COC1=O [Example 9, (Z)-4-Hydroxy-3-(1-oxo-9-octadecenyl)-2(5H)-furanone]",200 nM,–,–,56%,7%,42%,4%,28%,56%,–,–,–,–,–,–,–,–,–
"CCCC/C=C\CCCCCCCC(=O)C1=C(O)COC1=O [Example 25, 4-Hydroxy-3-((Z)-1-oxo-9-tetradecenyl)-2(5H)-furanone]",200 nM,–,–,47%,64%,30%,–,–,–,–,–,–,86%,–,–,–,–,–
"CCCCCCCC/C=C\CCCCCCCC(=O)C1=C(O)CSC1=O [Example 47, 4-Hydroxy-3-[(Z)-1-oxo-9-octadecenyl]-2(5H)-thiophenone]",100 nM,–,–,35%,77%,74%,-26%,–,69%,–,–,–,–,–,48.4%,–,–,–
"CCCC/C=C\CCCCCCCC(=O)C1=C(O)CSC1=O [Example 48, 4-Hydroxy-3-[(Z)-1-oxo-9-tetra-decenyl]-2(5H)-thiophenone]",–,–,76%,–,–,–,-16%,–,–,–,–,–,–,–,71.8%,25.4%,58%,–
"CCCCC/C=C\C/C=C\C/C=C\CCCCC(=O)C1=C(O)CSC1=O [Example 50, 4-Hydroxy-3-[(Z,Z,Z)-1-oxo-6,9,12-octadecatrienyl]-2(5H)-thiophenone]",–,42%,–,–,–,–,–,–,–,–,19 mg/kg,–,–,-35%,21.6%,–,78%,70.1%

# Second part, led by results:
IC50 (cyclooxygenase (PGE2); zymosan stimulation),Compound,inhibition at 10 µM [1],inhibition at 25 µM [1],inhibition at 50 µM [1],Subcutaneous % Inhibition at 50 m/kg (TPA-induced ear edema; on line of vehicle acetone),Topical % Inhibition at 200 μg (TPA-induced ear edema; vehicle acetone),inhibition at 0.3 µM (cyclooxygenase (PGE2); [2]),Subcutaneous % Inhibition at 50 m/kg (TPA-induced ear edema; on line of vehicle EPW),Topical % Inhibition at 200 μg (TPA-induced ear edema; vehicle EPW),"inhibition at 5 µM (cyclooxygenase (PGE2); arachidonic acid stimulation, 5 μM, read-out: PGE2 AA % Inhibition)",ED50 (TPA-induced ear edema),"inhibition at 1 µM (cyclooxygenase (PGE2); arachidonic acid stimulation, 1.0 μM, read-out: PGE2 AA % Inhibition)",Topical % Inhibition at 200 μg (TPA-induced ear edema; vehicle not given),inhibition at 0.5 µM (cyclooxygenase (PGE2); [2]),inhibition at 0.1 µM (cyclooxygenase (PGE2); zymosan stimulation),"inhibition at 0.03 µM (cyclooxygenase (PGE2); zymosan stimulation, 0.03 μM)",Subcutaneous % Inhibition at 50 m/kg (TPA-induced ear edema; no vehicle on line),"inhibition at 0.5 µM (cyclooxygenase (PGE2); zymosan stimulation, read-out: PGE2 zymosan % Inhibition)"
4000 nM,"CCCCC/C=C\C/C=C\CCCCCCCC(=O)C1=C(O)COC1=O [Example 14, (Z,Z)-4-Hydroxy-3-(1-oxo-9,12-octadecadienyl)-2(5H)-furanone]",16%,19%,64%,21%,28%,–,37%,51%,38%,118 mg/kg,–,–,–,–,–,–,–
350 nM,"CC/C=C\C/C=C\C/C=C\CCCCCCCC(=O)C1=C(O)COC1=O [Example 15, (Z,Z,Z)-4-Hydroxy-3-(1-oxo-9,12,15-octadecatrienyl)-2(5H)-furanone]",–,–,21%,–,34%,–,–,–,–,–,–,–,–,–,–,–,–
140 nM,"CCCCCCCCCCC/C=C\CCCCC(=O)C1=C(O)COC1=O [Example 18, (Z)-4-Hydroxy-3-(1-oxo-6-octadecenyl)-2(5H)-furanone]",–,53%,47%,37%,1%,-17%,28%,53%,–,–,–,–,–,–,–,–,–
700 nM,"CCCCC/C=C\C/C=C\C/C=C\CCCCC(=O)C1=C(O)COC1=O [Example 20, (Z,Z,Z)-4-Hydroxy-3-(1-oxo-6,9,12-octadecatrienyl)-2(5H)-furanone]",–,–,83%,76%,80%,–,–,81%,–,31 mg/kg,1%,–,–,–,–,–,–
200 nM,"CCCCCC1CC1CC1CC1CCCCCCCC(=O)C1=C(O)COC1=O (stereo not shown) [Example 22, 4-Hydroxy-3-[1-oxo-8-[2-[(2-pentylcyclopropyl)methyl]cyclopropyl]octyl]-2(5H)-furanone]",24%,49%,67%,36%,40%,–,–,–,–,–,–,–,–,–,–,–,–
150 nM,"O=C(CCCCCCC/C=C\c1ccc(Cl)cc1)C1=C(O)COC1=O [Example 35, 3-[(Z)-10-(4-chlorophenyl)-1-oxo-9-decenyl]-4-hydroxy-2(5H)-furanone]",–,–,5%,–,39%,–,–,–,–,–,–,–,–,–,–,–,–
100 nM,"CCCCC/C=C\C/C=C\CCCCCCCC(=O)C1=C(O)CSC1=O [Example 46, 4-Hydroxy-3[(Z,Z)-1-oxo-9,12-octadecadienyl]-2(5H)-thiophenone]",–,7%,50%,73%,41%,–,–,82%,–,46 mg/kg,–,–,5%,51.9%,–,–,–
